Experimental findings from paper PMC10584170, “Machine learning-based phenotypic imaging to characterise the targetable biology of Plasmodium falciparum male gametocytes for the development of transmission-blocking antimalarials” (PLOS Pathogens, 2023) are described below.

Data set [1] relates to P. falciparum male gametocytes. The experiment in a line: P. falciparum Dual Gamete Formation Assay (PfDGFA), male readout (exflagellation). In kind it is cell-based, Plasmodium falciparum NF54. To be noted: for Selectivity Ratio M: HepG2 Tox50 versus male IC50; for inhibition at 2 µM / Average inhibition male (%) / % inhibition male (individual replicates) R1 / % inhibition male (individual replicates) R3 / % inhibition male (individual replicates) R4: 24h preincubation with gametocytes; for IC50: PfDGFA, 24 h incubation with gametocytes before induction, exflagellation readout, read-out: Male IC50; for HitlevelM: number of replicates with >50% inhibition in the male readout. The essentials:
(§1)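 NF54 mature gametocytes (d14), cpd 24 h 37°C hypoxic gas; trigger: xanthurenic acid ookinete medium + Cy3 anti-Pfs25, 4°C 4 min → 28°C 4 min. Male: exflagellation centres, brightfield x6. Female: Pfs25+ gametes, fluorescence, +24 h 28°C dark.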

In data set [2] the test system is P. falciparum female gametocytes. Nature of the data set: P. falciparum Dual Gamete Formation Assay (PfDGFA), female readout (Pfs25-positive female gametes). In kind it is cell-based, Plasmodium falciparum NF54. The note with it: for Selectivity ratio F: HepG2 Tox50 versus female IC50; for inhibition at 2 µM / Average inhibition female (%) / % inhibition female (individual replicates) R1 / % inhibition female (individual replicates) R3 / % inhibition female (individual replicates) R4: 24h preincubation with gametocytes; for IC50: PfDGFA, 24 h incubation with gametocytes before induction, female gamete readout, read-out: Female IC50; for HitlevelF: number of replicates with >50% inhibition in the female readout. The essentials: as §1

The subject of data set [3] is HepG2 cells. The experiment in a line: HepG2 cytotoxicity counter-screen. To be noted: cytotoxic activity against HepG2 cells. On the technique in general: Counterscreens check selectivity or assay interference.
[4] abbreviates: Plasmodium falciparum, 2µM, average of replicates, read-out: Average inhibition male (%).
Setting [5] is: Plasmodium falciparum, 2µM, replicate R1, read-out: % inhibition male (individual replicates) R1.
[6] abbreviates: Plasmodium falciparum, 2µM, replicate R2, read-out: % inhibition male (individual replicates) R2.
Setting [7] is: Plasmodium falciparum, 2µM, replicate R3, read-out: % inhibition male (individual replicates) R3.
Where [8] appears, read: Plasmodium falciparum, 2µM, replicate R4, read-out: % inhibition male (individual replicates) R4.
Setting [9] is: Plasmodium falciparum, 2µM, average of replicates, read-out: Average inhibition female (%).
Setting [10] is: Plasmodium falciparum, 2µM, replicate R1, read-out: % inhibition female (individual replicates) R1.
Setting [11] is: Plasmodium falciparum, 2µM, replicate R2, read-out: % inhibition female (individual replicates) R2.
Setting [12] is: Plasmodium falciparum, 2µM, replicate R3, read-out: % inhibition female (individual replicates) R3.
Setting [13] is: Plasmodium falciparum, 2µM, replicate R4, read-out: % inhibition female (individual replicates) R4.
The mark [14] stands for this setting: PfDGFA at 2µM, average of replicates.

The structures appear in SMILES notation. Where two headings read alike, the source gives them in different places.

As a reminder, the inhibition is the relative decrease from the control value, in per cent. As usually defined, the IC50 is the midpoint of a concentration-inhibition curve. With `CC(C)(C)c1ccc(-c2nc3c(ccc4nc(N)nc(N)c43)[nH]2)cc1.Cl` [TCMDC-137984], the “Selectivity Ratio M” value in data set [1] turned out to be 17.94. Also, the inhibition at 2 µM in data set [1] (setting [4]) came out at 99.4%; in data set [1] (setting [5]), 99.9%; in data set [1] (setting [6]), 99.6%; in data set [1] (setting [7]), 98%; in data set [1] (setting [8]), 100%; in data set [2] (setting [9]), 42.3%. In addition, the inhibition at 2 µM worked out at 35.1% in data set [2] (setting [10]), 50% in data set [2] (setting [11]), 42.4% in data set [2] (setting [12]) and 41.7% in data set [2] (setting [13]). Moreover, the 50% inhibitory concentration (IC50) worked out at 0.18 µM in data set [1] (Plasmodium falciparum) and 0.97 µM in data set [2] (Plasmodium falciparum). Besides, the “Selectivity ratio F” value in data set [2] is on record as 3.35. Besides, the Tox50 in data set [3] was determined as 3.25 µM.
As for `Cn1c(-c2ccccc2)cc2c3c(N)nc(N)nc3ccc21` [TCMDC-137985], in data set [1], the “Selectivity Ratio M” value stood at 2.45 and the IC50 is 1.88 µM. In addition, in data set [1] (setting [14]), the “Average inhibition male (%)” value turned out to be 67.4%. Also, the “% inhibition male (individual replicates) R1” value in data set [1] (PfDGFA at 2µM, replicate R1) is reported as 74.3%. Also, the “% inhibition male (individual replicates) R3” value in data set [1] (PfDGFA at 2µM, replicate R3) worked out at 56.6%. Further, the “% inhibition male (individual replicates) R4” value in data set [1] (PfDGFA at 2µM, replicate R4) worked out at 64.0%. Moreover, the HitlevelM in data set [1] (2µM) is on record as 4. Moreover, in data set [2], the “Selectivity ratio F” value was 1.39 and the IC50 is 3.3 µM. In data set [2] (setting [14]), the “Average inhibition female (%)” value was determined as 1.3%. Also, the “% inhibition female (individual replicates) R1” value in data set [2] (PfDGFA at 2µM, replicate R1) worked out at 15.4%. The “% inhibition female (individual replicates) R3” value in data set [2] (PfDGFA at 2µM, replicate R3) is reported as -11.7%. Also, the “% inhibition female (individual replicates) R4” value in data set [2] (PfDGFA at 2µM, replicate R4) came out at 3.6%. Also, in data set [2] (2µM), the HitlevelF was found to be 0. In data set [3], this molecule displayed a Tox50 of 4.6 µM.
Take `CCCCCCCCN1CCN(CCCCCCNc2c3ccccc3nc3ccccc23)CC1.Cl` [TCMDC-138015]: in data set [1], the “Selectivity Ratio M” value is given as 2.34 and the half-inhibitory concentration (IC50) came to 1.76 µM. In addition, the “Average inhibition male (%)” value in data set [1] (setting [14]) stood at 63.5%. Moreover, in data set [1] (PfDGFA at 2µM, replicate R1), the “% inhibition male (individual replicates) R1” value was 58.8%. Further, the “% inhibition male (individual replicates) R3” value in data set [1] (PfDGFA at 2µM, replicate R3) was 66.4%. In data set [1] (PfDGFA at 2µM, replicate R4), the “% inhibition male (individual replicates) R4” value amounted to 81.8%. In addition, the HitlevelM in data set [1] (2µM) amounted to 3. Also, in data set [2], the “Selectivity ratio F” value is given as 2.15 and the IC50 turned out to be 1.91 µM. Besides, in data set [2] (setting [14]), the “Average inhibition female (%)” value stood at 83.0%. The “% inhibition female (individual replicates) R1” value in data set [2] (PfDGFA at 2µM, replicate R1) amounted to 79.8%. The “% inhibition female (individual replicates) R3” value in data set [2] (PfDGFA at 2µM, replicate R3) worked out at 90.0%. Also, the “% inhibition female (individual replicates) R4” value in data set [2] (PfDGFA at 2µM, replicate R4) is on record as 82.3%. The same molecule displayed a HitlevelF in data set [2] (2µM) of 4. Moreover, the Tox50 in data set [3] is 4.12 µM.
For `Cc1ccc(S(=O)(=O)N(CCCNCc2cccc(O)c2)c2ccccc2)cc1` [TCMDC-138022], the “Selectivity Ratio M” value in data set [1] is 100.82. Further, the inhibition at 2 µM in data set [1] (setting [4]) was determined as 98.1%; in data set [1] (setting [5]) it was 102%; in data set [1] (setting [6]), 101%; in data set [1] (setting [7]), 97.3%; in data set [1] (setting [8]), 91.8%; in data set [2] (setting [9]) it was 63.8%. The inhibition at 2 µM was found to be 52.6% in data set [2] (setting [10]), 60% in data set [2] (setting [11]), 91.9% in data set [2] (setting [12]) and 50.6% in data set [2] (setting [13]). In addition, the concentration for half-maximal inhibition (IC50) was 0.31 µM in data set [1] (Plasmodium falciparum) and 7.66 µM in data set [2] (Plasmodium falciparum). In addition, in data set [2], the “Selectivity ratio F” value came to 4.12. Besides, the Tox50 in data set [3] was determined as 31.57 µM.
For `CCN(CC)CC(O)CNc1c2ccc([N+](=O)[O-])cc2nc2cc(OC)c(OC)cc12.Cl` (stereo not drawn) [TCMDC-138079], in data set [1] (2µM, average of replicates), the “Average inhibition male (%)” value is 95.0%. The “% inhibition male (individual replicates) R1” value in data set [1] (2µM, replicate R1) came out at 93.0%. In addition, the “% inhibition male (individual replicates) R4” value in data set [1] (2µM, replicate R4) came out at 92.3%. In data set [1], the “Selectivity Ratio M” value was determined as 6.3 and the half-inhibitory concentration (IC50) came out at 0.42 µM. Besides, the “Average inhibition female (%)” value in data set [2] (2µM, average of replicates) was 25.5%. Besides, the “% inhibition female (individual replicates) R1” value in data set [2] (2µM, replicate R1) is listed as 28.2%. Besides, the “% inhibition female (individual replicates) R3” value in data set [2] (2µM, replicate R3) was 21.9%. In addition, in data set [2] (2µM, replicate R4), the “% inhibition female (individual replicates) R4” value was determined as 25.2%. Moreover, in data set [2], the “Selectivity ratio F” value stood at 0.86 and the 50% inhibitory concentration (IC50) turned out to be 3.07 µM. This molecule registered a Tox50 in data set [3] of 2.63 µM.
